Test results published in patent US20150159169A1, “Plants Tolerant to HPPD Inhibitor Herbicides” (Bayer CropScience AG, priority 2009, published 2015).
Several values for one entry are separate records, joined by “and”; a condition that tells them apart may be missing. Equal values may be shown once. Entries after “also recorded” stand apart in the source; their conditions may differ.

How the values were obtained:
[1] = tested on: T0 rice plants containing FMP27e; assay: Rice glasshouse response to tembotrione, injury classes; assay type: in vivo; details: 100 g AI/ha, 7 DAT
Protocol: (§1) T0 rooted plantlets (either selected on phosphinothricin alone or on phosphinothricin supplemented with tembotrione) were transferred to soil in the glasshouse. Following an acclimation period, sufficiently grown plants were treated with the different HPPD inhibitor herbicides. As an example, T0 plants were sprayed with tembotrione of formulation type WP20 (100 g AI/ha) supplemented with ammonium sulfate and methyl ester raps oil. Seven days after the spray application, the symptoms due to the application of the herbicide were evaluated and compared the symptoms observed on wild type plants submitted to the same treatment.
(§2) The plants were classified in three categories based on the phenotype developed in response to the herbicide seven days after the treatment.

[2] = tested on: wild type rice plants; assay: as above; assay type: in vivo; details: 100 g AI/ha, 7 DAT; no transgene
Protocol: as §1, §2

[3] = tested on: T0 rice plants containing AtHPPD; assay: as above; assay type: in vivo; details: 100 g AI/ha, 7 DAT
Protocol: as §1, §2

[4] = tested on: wild type tobacco plants; assay: Glasshouse spray trial, % injury; assay type: in vivo, Nicotiana tabacum; details: 7DAT, 100 gAI/ha spray; individual WT plants; 100% = bleaching as wild type
Protocol: (§3) T0 Tobacco plants containing either the gene from Arabidopsis coding for HPPD or the gene FMP27e from Kordia algicida coding for FMP27 HPPD, mentioned above (Example 3), were transferred to the glasshouse (28/20° C.), to develop further and produce seeds. Those seeds were harvested and put on soil (ED73 mixed with sand and osmocote Pro) to germinate in the glasshouse (28/20° C.). Three to four weeks later, plantlets were transferred to single pots containing the soil mentioned above. Two weeks later, plants of a size 4-6 cm diameter were sprayed with either • tembotrione at 100 gAI/ha prepared from a WP20 (wettable powder 20%) formulation supplemented with ammonium sulfate and methyl ester raps oil, or • isoxaflutole at 100 gAI/ha prepared from a WP20 formulation supplemented with ammonium sulfate and methyl ester raps oil, or • bicyclopyrone at 100 gAI/ha prepared from a WP20 formulation supplemented with ammonium sulfate and methyl ester raps oil, or • “blind formulation” made from a WP20 formulation without active ingredient (AI) supplemented with ammonium sulfate and methyl ester raps oil, and were then transferred to a growth chamber with adequate light conditions (20000 Lux).
(§4) Table 6: Wild type tobacco plants (A) and T1 populations of tobacco events containing alternatively, the expression cassettes described above having the promoter CaMV 35S, the sequence coding for OTP and the sequence coding for Arabidopsis HPPD (B) or the promoter CaMV35S, the sequence encoding OTP, and the sequence FMP27e coding for the HPPD FMP27 (C). Assessments of herbicidal damage at 7 days after application (DAT) per spray with 100 g AI/ha of tembotrione or isoxaflutole supplemented with ammonium sulfate and methyl ester raps oil. […] Plants belonging to categories (B) and (C) have not been selected for the presence of the respective transgene prior to the herbicide application.

[5] = tested on: T1 tobacco plants containing Arabidopsis HPPD; assay: Glasshouse spray trial, % injury; assay type: in vivo, Nicotiana tabacum; details: 7DAT, 100 gAI/ha spray
Protocol: as §3, §4

[6] = tested on: T1 tobacco plants containing FMP27e (Kordia algicida HPPD FMP27); assay: Glasshouse spray trial, % injury; assay type: in vivo, Nicotiana tabacum; details: 7DAT, 100 gAI/ha spray
Protocol: as §3, §4

[7] = tested on: soybean events expressing the FMP27 HPPD protein; assay: Soybean greenhouse response to tembotrione; assay type: in vivo; details: 100 g AI/ha, ten days after application; eight events
Protocol: Plants containing the transgene were then sprayed with HPPD inhibitor herbicides, as for example with tembotrione at a rate of 100 g AI/ha. Ten days after the application the symptoms due to the application of the herbicide were evaluated and compared to the symptoms observed on wild type plants under the same conditions. Eight events expressing the FMP27 HPPD protein have been generated from the green shoots of above and were transferred to the greenhouse. Four weeks after acclimation, i.e. plants at a developmental stage of 3-4 internodes were treated with 100 g AI/ha tembotrione prepared from a WP 20 formulation supplemented with ammonium sulfate and methyl ester raps oil. Ten days after application, the symptoms caused by the application of the HPPD inhibitor herbicide were evaluated and compared to the symptoms observed on treated non-transgenic wild-type soybean plants.

[8] = tested on: rice shoots containing AtHPPD; assay: Bleaching of rice shoots on MS/2 with tembotrione; assay type: cell-based; details: 2 weeks
Protocol: (§5) Rice transformation is achieved using methods well known in the art. Briefly, the Agrobacterium tumefaciens mediated transformation of rice was performed using immature embryos, from the restorer line 6G4317. Briefly, panicles from donor plants were harvested 8-12 days after pollination. The lemma of the immature seed was removed. Seeds were thereafter sterilized using a NaOCl based solution and Tween. The seeds were preinduced with […]. Agrobacterium tumefaciens cells are then co-cultivated with the preinduced seeds in presence of acetosyringone for 4 days at 24° C. in the dark. Thereafter, coleoptile from embryos are removed and washed, then put on a media supplemented with phosphinothricin for 3 weeks at 28° C. under a photoperiod rhythm of 16 hours. Then the growing calli were cut off from the embryos, and transferred to fresh media containing triacillin, phosphinothricin, L-proline and copper (II) sulfate.
(§6) For each callus-line and per Tembotrione concentration, 3 shoots, and randomly isolated from different callus pieces, were transferred to MS/2 with Tembotrione. As a general rule, transfer of the shoots from regeneration medium to MS/2 occurred 9 weeks after calli had been put on regeneration medium.
(§7) Cultures were incubated at 26.5° C. (16 hrs. photoperiod) and evaluation of symptoms occurred 2 weeks later.
(§8) New developing leaves of the shoots transferred have been scored on the basis of bleaching and categorized in 3 groups:
(§9) a) no bleaching b) intermediate bleaching c) complete bleaching
(§10) Within the category Intermediate bleaching′ a distinction has been made between shoots having new leaves showing only very little bleaching symptoms and thus tending to green leaves, and shoots with new leaves almost completely bleached.

[9] = tested on: rice shoots containing FMP27e; assay: Bleaching of rice shoots on MS/2 with tembotrione; assay type: cell-based; details: 2 weeks
Protocol: as §5, §6, §7, §8, §9, §10

## CS(=O)(=O)c1ccc(C(=O)C2C(=O)CCCC2=O)c(Cl)c1COCC(F)(F)F [Tembotrione, 2-[2-chloro-4-(methylsulfonyl)-3-[(2,2,2,-tri-fluoroethoxy)methyl]benzoyl]-1,3-cyclo-hexanedione]
[1]
  Class I, number of plants (no injuries): 2
  Class II, number of plants (injury: 10-40%): 17
  Class III, number of plants (injury: 41-100%): 4
[2]
  Class I, number of plants (no injuries): 0
  Class II, number of plants (injury: 10-40%): 0
  Class III, number of plants (injury: 41-100%): 20
[3]
  Class I, number of plants (no injuries): 1
  Class II, number of plants (injury: 10-40%): 13
  Class III, number of plants (injury: 41-100%): 9
[4]
  % injury: 100%
[5]; line 252, individual T1 plants
  % injury: 30% and 40% (3×) and 50% and 60% (2×) and 70% (2×) and 75% (3×) and 80%
[5]; line 258, individual T1 plants
  % injury: 100% (5×) and 30%
[5]; line 327, individual T1 plants
  % injury: 10% and 20% (2×) and 40% and 50% (2×) and 70% (5×) and 80% (4×)
[6]; line 121, individual T1 plants
  % injury: 0% (4×) and 5% (3×) and 10% (6×)
[6]; line 129, individual T1 plants
  % injury: 0% (2×) and 5% (2×) and 10% (2×) and 15% (2×) and 30% (2×)
[6]; line 218, individual T1 plants
  % injury: 0% (11×) and 5% (4×)
[7]
  bleaching symptoms of events: Two of the eight events didn't show any bleaching phenotype; also recorded: One event showed transitory light bleaching symptoms but recovered 14 days after tembotrione application; also recorded: remaining five events exhibited the bleaching like non-transgenic wild-type soybean plant
[8]; 1 μM
  N^o of shoots completely bleached: 12
  N^o of shoots with intermediate bleaching: 19
  N^o of shoots without bleaching: 27
[8]; 5 μM
  N^o of shoots completely bleached: 58
  N^o of shoots with intermediate bleaching: 2
  N^o of shoots without bleaching: 0
[9]; 1 μM
  N^o of shoots completely bleached: 10
  N^o of shoots with intermediate bleaching: 19
  N^o of shoots without bleaching: 28
[9]; 5 μM
  N^o of shoots completely bleached: 36
  N^o of shoots with intermediate bleaching: 21
  N^o of shoots without bleaching: 0
